How the values were obtained:
Type in all cases: physicochemical
[1] = Storage stability study of solid forms, form change by XRD (Example 11); conditions: 10% RH
Experimental: For X-ray powder diffraction analysis, a PANalytical Empyrean X-ray powder diffractometer was used. The parameters are as follows:
(§1) Form A and F samples were placed in chambers with silica gel to remove water (the relative humidity was measured to be ˜10% RH) at different temperatures. Form D samples were placed in chambers with water (relative humidity was estimated to be ˜100% RH) at different temperatures.
(§2) The HPLC purities and XRD patterns were obtained for each of Form A/F/D samples stored at various temperatures.

[2] = Physical form stability to grinding and sieving (XRD before and after)
Experimental: A sample of sepiapterin free base was obtained commercially. […] The sepiapterin sample contained particles with an average particle size over 100 μm. The XRD pattern was determined before and after grinding to reduce the particle size such that it passes through a 140 mesh screen. This polymorph of sepiapterin free base is referred to as Form A herein.

[3] = Storage stability of polymorphs, HPLC sepiapterin and impurity profile (Example 12); set-up: Impurity RRT 1.06 / Impurity RRT 1.08 / Impurity RRT 1.17 / Impurity RRT 1.21 / Impurity RRT 1.25 / Impurity RRT 0.62 / Impurity RRT 0.89 / Impurity RRT 0.95 / Impurity RRT 0.60: unit not given here
Experimental: Samples of sepiapterin free base polymorph Forms D, F, and A were stored at room temperature (RT), 35° C., and 50° C. The samples were analyzed by HPLC at 1 week and 4 week intervals. The HPLC parameters were as follows: [table]

[4] = Storage stability study of solid forms, HPLC purity (Example 11); conditions: 10% RH
Experimental: as §1, §2

[5] = 35° C./10% RH, 1 w, listed as Polymorph F
[6] = 35° C./10% RH, 4 w, listed as Polymorph F
[7] = 50° C./10% RH, 1 w, listed as Polymorph F
[8] = 50° C./10% RH, 4 w, listed as Polymorph F
[9] = RT/10% RH, 1 w, listed as Polymorph F
[10] = RT/10% RH, 4 w, listed as Polymorph F

Q: With `C[C@H](O)C(=O)C1=Nc2c(nc(N)[nH]c2=O)NC1` [Form F, sepiapterin] as the compound, how does the Form change ([1]; 35° C., storage 1 week) read?
A: No

Q: And the Form change ([1]; 35° C., storage 4 weeks)?
A: No

Q: And the Form change ([1]; 50° C., storage 1 week)?
A: No

Q: What about the Form change ([1]; 50° C., storage 4 weeks) of the same compound?
A: No

Q: And the Form change ([1]; RT, storage 1 week)?
A: No

Q: And the Form change ([1]; RT, storage 4 weeks)?
A: No

Q: And the “physical form stability to grinding and sieving” value [2]?
A: confirms the stability

Q: And the “Impurity RRT 0.60” value ([3]; 35° C./10% RH, 1 w)?
A: <0.05

Q: And the “Impurity RRT 0.95” value [3, 5]?
A: 0.35

Q: What about the “Impurity RRT 1.08” value [3, 5] of the same compound?
A: 0.06

Q: And the “Impurity RRT 1.17” value [3, 5]?
A: 0.15

Q: What about the “Sepiapterin RRT 1.00 (amount of sepiapterin)” value [3, 5] of the same compound?
A: 99.43%

Q: What about the “Impurity RRT 0.60” value ([3]; 35° C./10% RH, 4 w) of the same compound?
A: <0.05

Q: And the “Impurity RRT 1.08” value ([3]; 35° C./10% RH, 4 w)?
A: <0.05

Q: What about the “Impurity RRT 0.95” value [3, 6] of the same compound?
A: 0.42

Q: What about the “Impurity RRT 1.17” value [3, 6] of the same compound?
A: 0.15

Q: And the “Sepiapterin RRT 1.00 (amount of sepiapterin)” value [3, 6]?
A: 99.43%

Q: What about the “Impurity RRT 0.60” value ([3]; 50° C./10% RH, 1 w) of the same compound?
A: <0.05

Q: And the “Impurity RRT 0.95” value [3, 7]?
A: 0.58

Q: And the “Impurity RRT 1.08” value [3, 7]?
A: 0.11

Q: And the “Impurity RRT 1.17” value [3, 7]?
A: 0.15

Q: What about the “Sepiapterin RRT 1.00 (amount of sepiapterin)” value [3, 7] of the same compound?
A: 99.15%

Q: What about the “Impurity RRT 0.60” value ([3]; 50° C./10% RH, 4 w) of the same compound?
A: 0.12

Q: What about the “Impurity RRT 1.17” value ([3]; 50° C./10% RH, 4 w) of the same compound?
A: 0.17

Q: What about the “Impurity RRT 0.95” value [3, 8] of the same compound?
A: 0.86

Q: And the “Impurity RRT 1.08” value [3, 8]?
A: <0.05

Q: What about the “Sepiapterin RRT 1.00 (amount of sepiapterin)” value [3, 8] of the same compound?
A: 98.85%

Q: And the “Sepiapterin RRT 1.00 (amount of sepiapterin)” value ([3]; 50° C./10% RH, 4 w, listed as polymorph F)?
A: 98.85%

Q: And the “Impurity RRT 0.60” value ([3]; Initial)?
A: <0.05

Q: What about the “Impurity RRT 1.08” value ([3]; Initial) of the same compound?
A: <0.05

Q: What about the “Impurity RRT 1.17” value ([3]; Initial) of the same compound?
A: 0.17

Q: And the “Impurity RRT 0.95” value ([3]; Initial, listed as Polymorph F)?
A: 0.09

Q: What about the “Sepiapterin RRT 1.00 (amount of sepiapterin)” value ([3]; Initial, listed as Polymorph F) of the same compound?
A: 99.74%

Q: And the “Sepiapterin RRT 1.00 (amount of sepiapterin)” value ([3]; Initial, listed as polymorph F)?
A: 99.74%

Q: What about the “Impurity RRT 0.60” value ([3]; RT/10% RH, 1 w) of the same compound?
A: <0.05

Q: And the “Impurity RRT 1.17” value ([3]; RT/10% RH, 1 w)?
A: 0.16

Q: What about the “Impurity RRT 0.95” value [3, 9] of the same compound?
A: 0.29

Q: And the “Impurity RRT 1.08” value [3, 9]?
A: 0.14

Q: What about the “Sepiapterin RRT 1.00 (amount of sepiapterin)” value [3, 9] of the same compound?
A: 99.42%

Q: And the “Impurity RRT 0.60” value ([3]; RT/10% RH, 4 w)?
A: <0.05

Q: What about the “Impurity RRT 1.08” value ([3]; RT/10% RH, 4 w) of the same compound?
A: <0.05

Q: And the “Impurity RRT 1.17” value ([3]; RT/10% RH, 4 w)?
A: 0.16

Q: What about the “Impurity RRT 0.95” value [3, 10] of the same compound?
A: 0.30

Q: And the “Sepiapterin RRT 1.00 (amount of sepiapterin)” value [3, 10]?
A: 99.54%

Q: And the “stability compared with polymorph A (in words)” value ([3]; storage at RT, 35° C., 50° C., 1 w and 4 w)?
A: significantly greater stability

Q: What about the “% of Initial” value ([4]; 35° C., storage 1 week) of the same compound?
A: 99.7%

Q: And the “Purity (area %)” value ([4]; 35° C., storage 1 week)?
A: 99.4 area %

Q: What about the “% of Initial” value ([4]; 35° C., storage 4 weeks) of the same compound?
A: 99.7%

Q: What about the “Purity (area %)” value ([4]; 35° C., storage 4 weeks) of the same compound?
A: 99.4 area %

Q: And the “% of Initial” value ([4]; 50° C., storage 1 week)?
A: 99.4%

Q: And the “Purity (area %)” value ([4]; 50° C., storage 1 week)?
A: 99.2 area %

Q: And the “% of Initial” value ([4]; 50° C., storage 4 weeks)?
A: 99.1%

Q: And the “Purity (area %)” value ([4]; 50° C., storage 4 weeks)?
A: 98.9 area %

Q: What about the “% of Initial” value ([4]; RT, storage 1 week) of the same compound?
A: 99.7%

Q: And the “Purity (area %)” value ([4]; RT, storage 1 week)?
A: 99.4 area %

Q: What about the “% of Initial” value ([4]; RT, storage 4 weeks) of the same compound?
A: 99.8%

Q: What about the “Purity (area %)” value ([4]; RT, storage 4 weeks) of the same compound?
A: 99.5 area %

Source: US11072614B2, “Polymorphs of sepiapterin and salts thereof” (PTC Therapeutics MP, Inc., priority 2016, dated 2021)
